Counter-ions that a name gives are not always drawn.
Target: T1, human P2Y12 receptor (Homo sapiens, UniProt Q9H244)
T1 construct: expressed in transfected cells; host or cells: Chinese Hamster Ovary (CHO) cells
Assay: P2Y12 receptor binding assay
Details: CHO cells with recombinant expression of the human P2Y12 receptor; tritium-labeled 2-methyl-S-ADP; 2 hours at room temperature
Method: Chinese Hamster Ovary (CHO) cells with recombinant expression of the human P2Y12 receptor were cultured in 24 well cell-culture plates. Cells were washed three times with binding buffer (50 mM Tris pH 7.4, 100 mM NaCl, 1 mM EDTA, 0.5% BSA). The cells were then incubated with 0.5 ml per well binding buffer containing tritium-labeled 2-methyl-thio-adenosine 5′-diphosphate (2-methyl-S-ADP) (between 100'000 and 300'000 dpm per well) and various concentrations of test compounds. After incubation at room temperature for 2 hours, cells were washed three times with binding buffer. Then, cells were solubilized by addition of 0.5 ml solubilization buffer (SDS, NaOH, EDTA). The content of each well was then transferred into beta-counter vials and 2.0 ml of Ultima Gold Scintillation liquid was added.

T1 sequence (Q9H244 whole entry): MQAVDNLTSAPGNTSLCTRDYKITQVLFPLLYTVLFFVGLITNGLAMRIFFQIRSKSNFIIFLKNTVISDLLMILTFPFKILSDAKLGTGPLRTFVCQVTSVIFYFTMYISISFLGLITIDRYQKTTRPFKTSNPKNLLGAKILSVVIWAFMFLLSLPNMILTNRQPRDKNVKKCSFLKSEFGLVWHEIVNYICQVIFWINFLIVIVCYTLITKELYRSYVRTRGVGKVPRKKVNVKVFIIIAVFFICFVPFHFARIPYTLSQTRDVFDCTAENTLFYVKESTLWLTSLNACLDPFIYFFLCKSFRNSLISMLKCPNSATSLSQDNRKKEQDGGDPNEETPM

SMILES | IC50 [nM]
CCOC(=O)N1CCN(C(=O)[C@H](CCc2nnn[nH]2)NC(=O)c2cc(OC3CCOC3)nc(-c3ccccc3)n2)CC1 (stereo partly drawn) [Example 17, 4-[(S)-2-{[2-phenyl-6-(tetrahydro-furan-3-yloxy)-pyrimidine-4-carbonyl]-amino}-4-(1H-tetrazol-5-yl)-butyryl]-piperazine-1-carboxylic acid ethyl ester] | 94
CCCCOC(=O)N1CCN(C(=O)[C@H](CCC(=O)OC(C)(C)C)NC(=O)c2cc(O[C@@H]3CCOC3)nc(-c3ccccc3)n2)CC1 [Example 36, 4-[(S)-4-tert-butoxycarbonyl-2-({2-phenyl-6-[(R)-(tetrahydro-furan-3-yl)oxy]-pyrimidine-4-carbonyl}-amino)-butyryl]-piperazine-1-carboxylic acid butyl ester] | 448
CCOC(=O)N1CCN(C(=O)[C@H](CCC(=O)O)NC(=O)c2cc(OC3CCCN(C)C3)nc(-c3ccccc3)n2)CC1 (stereo partly drawn) [Example 6, 4-((S)-4-carboxy-2-{[6-(1-methyl-piperidin-3-yloxy)-2-phenyl-pyrimidine-4-carbonyl]-amino}-butyryl)-piperazine-1-carboxylic acid ethyl ester trifluoroacetate salt] | 238
CCCCOC(=O)N1CCN(C(=O)[C@H](CCC(=O)OC(C)(C)C)NC(=O)c2cc(OC3CCNCC3)nc(-c3ccccc3)n2)CC1 [Example 38, 4-((S)-4-tert-butoxycarbonyl-2-{[2-phenyl-6-(piperidin-4-yloxy)-pyrimidine-4-carbonyl]-amino}-butyryl)-piperazine-1-carboxylic acid butyl ester] | 13000
CCOC(=O)N1CCN(C(=O)[C@H](CCC(=O)O)NC(=O)c2cc(OC3CCOC3)nc(-c3ccccc3)n2)C(C)C1 (stereo partly drawn) [Example 10, ((S)-4-carboxy-2-{[2-phenyl-6-(tetrahydro-furan-3-yloxy)-pyrimidine-4-carbonyl]-amino}-butyryl)-3-methyl-piperazine-1-carboxylic acid ethyl ester] | 126
CCOC(=O)N1CCN(C(=O)[C@H](CCC(=O)O)NC(=O)c2cc(OCCOCCOC)nc(-c3ccccc3)n2)CC1 [Example 1, 4-[(S)-4-carboxy-2-({6-[2-(2-methoxy-ethoxy)-ethoxy]-2-phenyl-pyrimidine-4-carbonyl}-amino)-butyryl]-piperazine-1-carboxylic acid ethyl ester] | 108
CCCCOC(=O)N1CCN(C(=O)[C@H](CCC(=O)O)NC(=O)c2cc(OC3CCNCC3)nc(-c3ccccc3)n2)CC1 [Example 37, 4-((S)-4-carboxy-2-{[2-phenyl-6-(piperidin-4-yloxy)-pyrimidine-4-carbonyl]-amino}-butyryl)-piperazine-1-carboxylic acid butyl ester] | 71

Reference: patent US8044055B2, “2-phenyl-6-aminocarbonyl-pyrimidine derivatives and their use as P2Y12 receptor” (Actelion Pharmaceuticals Ltd., priority 2006, dated 2011)
